pIC50: −log10 of the molar value.
target: T1, human SARM1(50-724) (Homo sapiens, UniProt Q6SZW1); assay: SARM1 NADase biochemical assay (HPLC of NAD and NAM); settings: 40 nM human SARM1(50-724), 0.3 mM NMN, 20 μM NAD, 60 minutes room temperature; dose-response from 100 μM, 1:3 dilution
T1 construct: 40 nM human SARM1(50-724)
T1 sequence (Q6SZW1 50-724): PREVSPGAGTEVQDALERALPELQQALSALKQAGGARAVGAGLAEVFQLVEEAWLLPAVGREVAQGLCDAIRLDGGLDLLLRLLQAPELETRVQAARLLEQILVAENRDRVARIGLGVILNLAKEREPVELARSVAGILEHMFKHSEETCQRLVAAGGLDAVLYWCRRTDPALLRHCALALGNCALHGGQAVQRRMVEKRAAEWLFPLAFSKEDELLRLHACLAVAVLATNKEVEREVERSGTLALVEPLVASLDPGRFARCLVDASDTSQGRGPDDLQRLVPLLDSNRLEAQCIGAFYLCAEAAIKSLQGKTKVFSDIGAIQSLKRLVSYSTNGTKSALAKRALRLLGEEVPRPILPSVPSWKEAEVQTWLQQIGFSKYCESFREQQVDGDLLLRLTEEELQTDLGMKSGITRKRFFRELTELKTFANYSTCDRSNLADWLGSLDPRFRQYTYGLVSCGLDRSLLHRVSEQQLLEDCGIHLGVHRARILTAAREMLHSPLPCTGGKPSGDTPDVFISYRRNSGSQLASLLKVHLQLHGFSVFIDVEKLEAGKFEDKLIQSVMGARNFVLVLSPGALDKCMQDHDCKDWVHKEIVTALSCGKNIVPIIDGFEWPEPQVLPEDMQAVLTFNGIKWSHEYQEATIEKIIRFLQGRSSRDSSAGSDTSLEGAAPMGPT
In short: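 Human SARM1(50-724) at 40 nM with 0.3 mM NMN, 20 μM NAD, 1 mM TCEP in 25 mM HEPES pH 7.4, 10 mM KCl, 10 mM MgCl2, 1% DMSO; 60 min at room temperature, formic acid quench. NAD and NAM quantified by reverse-phase HPLC peak area; single point 50 μM or 1:3 series from 100 μM.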

Compound | pIC50
Cc1c(NC(=O)OCc2ccc(Cl)s2)cnn1-c1ccncc1 [Example 149, (5-Chlorothiophen-2-yl)methyl (5-methyl-1-(pyridin-4-yl)-1H-pyrazol-4-yl)carbamate] | 5.00 to 6.00
Cc1c(N2C(=O)[C@H](Cc3ccc(Cl)cc3)NC2(C)C)cnn1-c1ccncc1 [Example 152, (S)-5-(4-Chlorobenzyl)-2,2-dimethyl-3-(5-methyl-1-(pyridin-4-yl)-1H-pyrazol-4-yl)imidazolidin-4-one] | 5.00 to 6.00
O=C1N(Cc2ccc(Cl)cc2)CCN1c1cnn(-c2ccncc2)c1 [Example 158, 1-(4-Chlorobenzyl)-3-(1-(pyridin-4-yl)-1H-pyrazol-4-yl)imidazolidin-2-one] | 5.00 to 6.00
O=C1N(Cc2ccc(Cl)cc2)CCCN1c1cnn(-c2ccncc2)c1 [Example 159, 1-(4-Chlorobenzyl)-3-(1-(pyridin-4-yl)-1H-pyrazol-4-yl)tetrahydropyrimidin-2(1H)-one] | 5.00 to 6.00
S=C(NCc1ccc(Cl)cc1)Nc1cnn(-c2ccncc2)c1 [Example 160, 1-(4-Chlorobenzyl)-3-(1-(pyridin-4-yl)-1H-pyrazol-4-yl)thiourea] | 5.00 to 6.00
O=C(NCc1ccc(Cl)cc1)Nc1[nH]nc(-c2ccncc2)c1Cl [Example 168, 1-(4-Chloro-3-(pyridin-4-yl)-1H-pyrazol-5-yl)-3-(4-chlorobenzyl)urea] | > 6.00
COc1cnccc1-c1cc(NC(=O)CCc2ccc(Cl)cc2)[nH]n1 [Example 169, 3-(4-Chlorophenyl)-N-(3-(3-methoxypyridin-4-yl)-1H-pyrazol-5-yl)propanamide] | 5.00 to 6.00
O=C(CCc1ccc(Cl)cc1)Nc1cc(-c2ccncc2F)n[nH]1 [Example 170, 3-(4-Chlorophenyl)-N-(3-(3-fluoropyridin-4-yl)-1H-pyrazol-5-yl)propanamide] | > 6.00

The remaining lines, values ahead:

pIC50 | Compound
> 6.00 | N[C@H](Cc1ccc(Cl)cc1)C(=O)Nc1cc(-c2ccncc2)n[nH]1 [Example 151, (R)-2-Amino-3-(4-chlorophenyl)-N-(3-(pyridin-4-yl)-1H-pyrazol-5-yl)propanamide]
> 6.00 | N[C@@H](Cc1ccc(Cl)cc1)C(=O)Nc1cc(-c2ccncc2)n[nH]1 [Example 153, (S)-2-Amino-3-(4-chlorophenyl)-N-(3-(pyridin-4-yl)-1H-pyrazol-5-yl)propanamide]
> 6.00 | Cc1c(-c2ccncc2)n[nH]c1NC(=O)NCc1ccc(Cl)cc1 [Example 161, 1-(4-Chlorobenzyl)-3-(4-methyl-3-(pyridin-4-yl)-1H-pyrazol-5-yl)urea]
> 6.00 | O=C(CCc1ccc(Cl)cc1)Nc1nnc(-c2ccncc2)[nH]1 [Example 162, 3-(4-Chlorophenyl)-N-(5-(pyridin-4-yl)-4H-1,2,4-triazol-3-yl)propanamide]
> 6.00 | O=C(NCc1cc(F)c(Cl)c(F)c1)Nc1cc(-c2ccncc2)n[nH]1 [Example 163, 1-(4-Chloro-3,5-difluorobenzyl)-3-(3-(pyridin-4-yl)-1H-pyrazol-5-yl)urea]
> 6.00 | O=C(NCc1cc(F)c(F)c(F)c1)Nc1cc(-c2ccncc2)n[nH]1 [Example 164, 1-(3-(Pyridin-4-yl)-1H-pyrazol-5-yl)-3-(3,4,5-trifluorobenzyl)urea]
> 6.00 | O=C(NCc1ccc(Cl)cc1)Nc1cc(-c2ccncc2)n[nH]1 [Example 165, 1-(4-Chlorobenzyl)-3-(3-(pyridin-4-yl)-1H-pyrazol-5-yl)urea]
> 6.00 | O=C(CCc1cc(F)c(F)c(F)c1)Nc1[nH]nc(-c2ccncc2)c1Cl [Example 167, N-(4-Chloro-3-(pyridin-4-yl)-1H-pyrazol-5-yl)-3-(3,4,5-trifluorophenyl)propanamide]
